Entries after “also recorded” stand apart in the source; their conditions may differ.

Series [1] in a line: LC/MS detection of tigecycline metabolites in CD-1 mouse serum and urine after intravenous tigecycline. The method, then:
Fifteen male CD-1 mice, with an average weight of 31.3 g at the time of dosing, were used. Animals were given food and water ad libitum. Mice in the 0.5 and 2 hour blood collection groups were housed in standard cages, while those in the 4 hour blood collection group were housed in metabolism cages for the collection of urine. Mice were dosed by the Bioresources Department at Wyeth Research, Collegeville, Pa.
For mice and rabbits, the intravenous dosing solutions was prepared by dissolving 50 mg of tigecycline in 5.0 mL of 0.9% sterile saline solution to make a working stock solution. The working stock solution was diluted with 0.9% sterile saline solution to 0.5 mg/mL for mice and 4 mg/mL for rabbits. The mouse dose (5 mg/kg, 10 mL/kg) was administered as a bolus injection via the tail vein. The rabbit dose (4 mg/kg, 1 mL/kg) was administered as a bolus injection via the marginal vein of the ear.
For mice (n=5/time point), blood (approximately 0.7 mL) was collected by cardiac puncture at 0.5, 2 and 4 hours following administration of tigecycline. For rabbits, blood (approximately 7 mL) was collected via the ear vein at 0.5, 2 and 6 hours following the tigecycline dose. Serum was separated following clot formation at room temperature and centrifugation for 15 minutes at 4° C. and 3000 rpm. The serum was transferred to a fresh tube and was stored at approximately −70° C. until analysis as described below under “Serum Sample Preparation for LC/MS Analysis. In addition, urine was collected from mice in the 4 hour blood collection group and was stored at approximately −70° C. until analysis, as described below under “Urine Sample Preparation for LC/MS Analysis.”
Mouse urine was thawed and an aliquot (1 mL) transferred to a fresh tube. The sample was centrifuged at 14,000 rpm and room temperature for 10 minutes using a Model 5415C Eppendorf centrifuge (Brinkmann Instruments, Westbury, N.Y.) to remove any particulates. The sample was then transferred to a fresh tube and was analyzed by LC/MS, as described below under “Liquid Chromatography/Mass Spectrometry Analysis.”.
Mouse and rabbit serum samples were pooled at each collection time and analyzed for tigecycline, its epimer, tigecycline glucuronide (M7 and its epimer M6), 9-aminominocycline (M3) and N-acetyl-9-aminominocycline (M9 and its epimer M8). Aliquots of serum (500 μL) were transferred to new tubes and deuterated tigecycline (30 ng/mL final concentration) was added as an internal standard (quantitative analysis only). EDTA (40 μL of 0.5 M EDTA) was added to each sample and the samples vortex mixed. Acetonitrile (500 μL) was added to each sample, samples were vortex mixed and denatured protein separated by centrifugation at 14,000 rpm and room temperature for 10 minutes using a Model 5415C Eppendorf centrifuge (Brinkmann Instruments). The supernatant was transferred to a fresh tube and the solvent evaporated under a stream of nitrogen using a Turbovap Model LV evaporator (Caliper Life Sciences, Hopkinton, Mass.).
The HPLC system used for mass spectrometric analysis was a Waters Alliance Model 2695 HPLC system (Waters Corp., Milford, Mass.). It was equipped with a built-in autosampler and a Model 996 diode array UV detector. The UV detector was set to monitor 210-400 nm. Separations for metabolite characterization were accomplished on a Phenomenex Luna C18(2) column (150×2.1 mm, 5 μm) (Phenomenex, Torrance, Calif.) equipped with a Keystone Uniguard C18 guard column (10×2.1 mm) (Thermo Electron Corp., Bellefonte, Pa.). The column temperature was 25° C. The flow rate was 0.2 mL/min. Mobile phase A was 10 mM ammonium acetate in water and mobile phase B was acetonitrile.

A short description of series [2]: Tigecycline metabolites identified in CD-1 mouse serum and urine and rabbit serum samples (LC/MS). The class given is in vivo. The method, then:
The column temperature was 25° C. The flow rate was 0.2 mL/min. […] Gradient 1 was used for metabolite identification (qualitative analysis).
LC/MS analysis was conducted on extracts of serum and from CD-1 mice and rabbits, and on urine from CD-1 mice. The mass spectral data for tigecycline and its metabolites are discussed below.

The conditions of series [3]: male, human, in vivo. How it is done:
An open-label, inpatient, multiple-dose tigecycline, single-dose [^14C]tigecycline metabolic disposition and mass balance study was performed in six healthy male volunteers. The clinical protocol called for twelve subjects. Of these twelve, six received the radioactive dose (subjects 1, 4, 5, 6, 7, and 8 with subject 8 later dropping out of the study.) Eligible subjects were selected based on inclusion/exclusion criteria, medical history, physical examination and additional procedures outlined in the study protocol. Each subject received a 100 mg loading dose on the morning of Day 1, followed by a 50 mg maintenance dose every 12 hours for an additional 5 doses. On the morning of study Day 4, six subjects received a single 50 mg dose of [^14C]tigecycline (50 μCi). Each tigecycline dose was administered via a 30-minute intravenous infusion.
Serum samples were collected for metabolite profiling prior to tigecycline dosing and 1, 4, 8, 24 and 48 hours following the [^14C]-labeled dose. For metabolite profiling, urine samples were collected at 0-4, 4-8, 8-24 and 24-48 hours and fecal samples were collected up to 48 hours following the [^14C]-labeled dose. Serum and urine samples, and fecal homogenates were shipped on dry ice to the Biotransformation Division of Drug Safety and Metabolism, Wyeth Research, Collegeville, Pa. The details of the sample collection and sample storage are described in the mass balance portion of the study. The 24-48 hour urine and fecal samples for subject #6 were incomplete since the subject withdrew from the study. While samples from this subject were used for metabolite profiling, the samples were not included in the mass balance calculations.
Urine samples for metabolite profiling were extracted, as discussed below, using a method previously developed and used for rat and dog urine samples. Urine samples that had been collected at various intervals up to 48 hours following the dose of [^14C]tigecycline were thawed on ice prior to extraction. Aliquots (1 mL) of the individual urine samples were transferred to clean tubes and 0.2 M EDTA, for a final concentration of 40 mM EDTA, was added. […] Samples were mixed, centrifuged and the supernatants analyzed for metabolites by HPLC radiochromatography with selected samples also analyzed by LC/MS.
HPLC analyses were performed using a Waters 2695 Alliance Separation Module (Waters Corp., Milford, Mass.), a Waters Model 2487 dual wavelength UV absorbance detector, set to monitor 350 nm, and was in-line with a Gilson 215 liquid handler (Gilson, Middleton, Wis.) equipped to collect fractions at 20 second intervals. Fractions were collected into 96-well deep well Luma plates and analyzed using TopCount NXT. The autosampler temperature was set to 4° C. […]

`CN(C)c1cc(NC(=O)CNC(C)(C)C)c(O)c2c1C[C@H]1C[C@H]3[C@H](N(C)C)C(O)=C(C(N)=O)C(=O)[C@@]3(O)C(O)=C1C2=O` [Tigecycline]: the “observed in mouse serum by LC/MS” value in series [1] (male CD-1 mice, 5 mg/kg IV tigecycline, 0.5, 2, 4 hours, 5 mg/kg) is “observed; also recorded: detected”. Besides, the “observed in mouse urine by LC/MS” value in series [1] (male CD-1 mice, 5 mg/kg IV tigecycline, urine 0-4 hours) is “detected”. Also, the “Species and matrix in which identified” value in series [2] (single IV tigecycline dose, LC/MS) is recorded as “R-S, M-S, M-U”.

On to `CC(C)(C)NCC(=O)O` [Metabolite M3a, t-butylaminoacetic acid], for which the “percent of the radioactivity in urine” value in series [3] is reported as 15-37%.

`CN(C)c1cc(NC(=O)CNC(C)(C)C)c(O)c2c1C[C@H]1C[C@H]3C(N(C)C)C(O[C@@H]4O[C@H](C(=O)O)[C@@H](O)[C@H](O)[C@H]4O)=C(C(N)=O)C(=O)[C@@]3(O)C(O)=C1C2=O` (stereo in doubt) [Metabolite M7, tigecycline glucuronide]: in series [3], the “percent of the urinary radioactivity” value is listed as “approximately 20%”. Further, the “observed in mouse urine by LC/MS” value in series [1] (mouse, in vivo, iv, 5 mg/kg) is listed as “detected”. For the same compound, the “Species and matrix in which identified” value in series [2] (in vivo, iv) is “R-S, M-S, M-U”.

In the case of `CN(C)c1cc(NC(=O)CNC(C)(C)C)c(O)c2c1C[C@H]1C[C@H]3[C@@H](N(C)C)C(O[C@@H]4O[C@H](C(=O)O)[C@@H](O)[C@H](O)[C@H]4O)=C(C(N)=O)C(=O)[C@@]3(O)C(O)=C1C2=O` [Metabolite M6, epimer of tigecycline glucuronide], the “percent of the radioactivity in urine” value in series [3] was “less than 1%”. The “observed in mouse urine by LC/MS” value in series [1] (mouse, in vivo, iv, 5 mg/kg) is on record as “detected”. Also, the “Species and matrix in which identified” value in series [2] (in vivo, iv) was “R-S, M-S, M-U”.

The record behind these values is US7534766B2, “Glucuronide metabolites and epimers thereof of tigecycline” (Wyeth, priority 2004, dated 2009).
